Experimental data: patent US20080070946A1, “Hydroxymethylbenzothiazoles Amides” (AstraZeneca AB, priority 2004, published 2008)
pIC50: −log10 of the molar value.

Assays:
hVR1 = biological target: T1, hVR1 (Homo sapiens, UniProt Q8NER1); test: hVR1 FLIPR (Fluorometric Image Plate Reader) screening assay, IC50 determination; format: cell-based; settings: CHO cells stably expressing hVR1
T1 construct: expressed in transfected cells
Protocol: 1. hVR1 FLIPR (Fluorometric Image Plate Reader) Screening Assay
Transfected CHO cells, stably expressing hVR1 (15,000 cells/well) are seeded in 50 ul media in a black clear bottom 384 plate (Greiner) and grown in a humidified incubator (37° C., 2% CO2), 24-30 hours prior to experiment.
Subsequently, the media is removed from the cell plate by inversion and 2 μM Fluo-4 is added using a multidrop (Labsystems). Following the 40 minutes dye incubation in the dark at 37° C. and 2% CO2, the extracellular dye present is washed away using an EMBLA (Scatron), leaving the cells in 40 ul of assay buffer (1× HBSS, 10 mM D-Glucose, 1 mM CaCl2, 10 mM HEPES, 10×7.5% NaHCO3 and 2.5 mM Probenecid).
FLIPR Assay—IC50 Determination Protocol
For IC50 determinations the fluorescence is read using FLIPR filter 1 (em […]). A cellular baseline recording is taken for 30 seconds, followed by a 20 μl addition of 10, titrated half-log concentrations of the test compound, yielding cellular concentration ranging from 3 μM to 0.1 nM. Data is collected every 2 seconds for a further 5 minutes prior to the addition of a VR1 agonist solution: either 50 nM solution of capsaicin or MES (2-[N-morpholino]ethanesulfonic acid) buffer (pH 5.2), by the FLIPR pipettor. The FLIPR continues to collect data for a further 4 minutes. Compounds having antagonistic properties against the hVR1 will inhibit the increase in intracellular calcium in response to the capsaicin addition. This consequently leading to a reduction in fluorescence signal and providing a reduced fluorescence reading, compared with no compound, buffer controls. Data is exported by the FLIPR program as a sum of fluorescence calculated under the curve upon the addition of capsaicin. Maximum inhibition, Hill slope and IC50 data for each compound are generated.

[1] = Metabolic stability in rat hepatocytes (intrinsic clearance); format: in vitro ADME; settings: male, Sprague-Dawley, freshly isolated rat hepatocytes, read-out: rClint hep
Protocol: Metabolic Stability in Rat Hepatocytes
Cells source: in house fresh isolated rat hepatocytes from male sprague-Dawley.
1 μM of compound incubated in Krebs-Heinsleit buffer with 1×10^6 cells in 37° C. for 0, 15, 30, 60 and 90 min. A total volume of each incubation was 100 μL containing 0.1% DMSO. The reaction was stopped by adding 100 μL acetonitrile.
After reaction was stopped. The sample was centrifuged at 1900 g for 5 min. Supernatant was transferred to a clean tube for analysis.

T1 sequence (Q8NER1 whole entry): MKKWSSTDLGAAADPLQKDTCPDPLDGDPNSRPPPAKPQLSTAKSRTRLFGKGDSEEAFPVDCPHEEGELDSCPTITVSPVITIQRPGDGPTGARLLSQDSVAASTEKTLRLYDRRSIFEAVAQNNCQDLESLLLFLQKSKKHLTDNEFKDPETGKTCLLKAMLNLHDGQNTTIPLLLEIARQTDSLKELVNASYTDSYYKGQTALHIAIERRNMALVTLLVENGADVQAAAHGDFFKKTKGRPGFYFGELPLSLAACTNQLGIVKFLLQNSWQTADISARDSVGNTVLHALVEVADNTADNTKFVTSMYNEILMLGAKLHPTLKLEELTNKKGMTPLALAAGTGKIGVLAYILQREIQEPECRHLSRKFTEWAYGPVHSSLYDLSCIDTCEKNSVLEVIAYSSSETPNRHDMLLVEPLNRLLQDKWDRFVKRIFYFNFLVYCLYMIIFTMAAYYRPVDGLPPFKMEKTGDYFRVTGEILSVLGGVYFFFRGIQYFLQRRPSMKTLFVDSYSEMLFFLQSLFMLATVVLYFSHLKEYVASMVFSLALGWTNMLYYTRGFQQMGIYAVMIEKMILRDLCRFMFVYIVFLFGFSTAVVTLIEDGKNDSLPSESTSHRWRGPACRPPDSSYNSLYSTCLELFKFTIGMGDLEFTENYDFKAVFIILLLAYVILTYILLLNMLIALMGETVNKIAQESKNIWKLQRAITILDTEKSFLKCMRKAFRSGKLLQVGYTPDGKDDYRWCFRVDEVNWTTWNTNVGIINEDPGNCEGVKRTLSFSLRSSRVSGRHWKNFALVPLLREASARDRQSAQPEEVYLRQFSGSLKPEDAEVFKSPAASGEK

SMILES | pIC50 (hVR1; agonist capsaicin) | pIC50 (hVR1; agonist pH 5.2 buffer) | Hepatocyte intrinsic clearance at 1 μM [1]
O=C(Nc1ccc2sc(CO)nc2c1)c1ccc(OC(F)(F)C(F)F)cc1 [Example 5, N-[2-(hydroxymethyl)-1,3-benzothiazol-5-yl]-4-(1,1,2,2-tetrafluoroethoxy)benzamide] | 8.10 |  | 
Cc1nc(C(F)(F)F)ccc1C(=O)Nc1ccc2sc(CO)nc2c1F [Example 41, N-[4-fluoro-2-(hydroxymethyl)-1,3-benzothiazol-5-yl]-2-methyl-6-(trifluoromethyl)nicotinamide] | 5.71 |  | 
O=C(Nc1ccc2sc(CO)nc2c1)c1ccc(C(F)(F)F)nc1 [Example 8, N-[2-(hydroxymethyl)-1,3-benzothiazol-5-yl]-6-(trifluoromethyl)nicotinamide] |  | 6.38 | 
Cc1cc(OC(C)(C)C)ccc1C(=O)Nc1ccc2sc(CO)nc2c1 [Example 23, 4-tert-butoxy-N-[2-(hydroxymethyl)-1,3-benzothiazol-5-yl]-2-methylbenzamide] | 7.23 |  | 22 µL/min/mg
O=C(Nc1ccc2sc(CO)nc2c1)c1ccc(C(F)(F)F)c(F)c1 [Example 7, 3-Fluoro-N-[2-(hydroxymethyl)-1,3-benzothiazol-5-yl]-4-(trifluoromethyl)benzamide] | 8.40 |  | 
Cc1cc(OC(C)C)ccc1C(=O)Nc1ccc2sc(CO)nc2c1F [Example 40, N-[4-fluoro-2-(hydroxymethyl)-1,3-benzothiazol-5-yl]-4-isopropoxy-2-methylbenzamide] | 7.17 |  | 11.8 µL/min/mg
O=C(Nc1ccc2sc(CO)nc2c1F)c1ccc(C(F)(F)F)nc1 [Example 42, N-[4-fluoro-2-(hydroxymethyl)-1,3-benzothiazol-5-yl]-6-(trifluoromethyl)nicotinamide] | 6.04 |  | 
CN(C)c1ccc(C(=O)Nc2ccc3sc(CO)nc3c2)c2ccccc12 [Example 10, 4-(dimethylamino)-N-[2-(hydroxymethyl)-1,3-benzothiazol-5-yl]-1-naphthamide] | 7.27 |  | 14 µL/min/mg
O=C(Nc1ccc2sc(CO)nc2c1)c1ccc(N2CCCCC2)nc1 [Example 9, N-[2-(hydroxymethyl)-1,3-benzothiazol-5-yl]-6-piperidin-1-ylnicotinamide] | 7.07 |  | 
O=C(Nc1ccc2sc(CO)nc2c1)c1ccc(C2CCCCC2)cc1 [Example 6, 4-Cyclohexyl-N-[2-(hydroxymethyl)-1,3-benzothiazol-5-yl]benzamide] | 7.64 |  | 
O=C(Nc1ccc2sc(CO)nc2c1F)c1ccc(OCC(F)(F)F)nc1 [Example 43, N-[4-fluoro-2-(hydroxymethyl)-1,3-benzothiazol-5-yl]-6-(2,2,2-trifluoroethoxy)nicotinamide] | 6.31 |  | 
Cc1cc(OC(C)C)ccc1C(=O)Nc1ccc2sc(CO)nc2c1 [Example 24, N-[2-(hydroxymethyl)-1,3-benzothiazol-5-yl]-4-isopropoxy-2-methylbenzamide] | 7.33 |  | 10 µL/min/mg
